Several values for one entry are separate records, joined by “and”; a condition that tells them apart may be missing. Identical values can stand only once.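 Briefly, cells in 96-well plates were exposed to five compound concentrations for 48 h, and endpoints were estimated by linear interpolation. GI50 marks 50% less growth. Definition used: TGI = concentration required for complete inhibition of growth.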
Experiments:
Experiment in all cases: growth of human tumour cells (NCI), 48 h
DMS 114 small cell lung = system: DMS 114 small cell lung
LXFL 529 NSCLC = system: LXFL 529 NSCLC
NCI-H23 lung = system: NCI-H23 lung
SNB-19 CNS = system: SNB-19 CNS
SNB-75 CNS = system: SNB-75 CNS
NCI-H522 lung = system: NCI-H522 lung
A498 renal = system: A498 renal
DU-145 prostate = system: DU-145 prostate
HS 578T breast = system: HS 578T breast
T-47D breast = system: T-47D breast

Row | Compound | TGI (DMS 114 small cell lung) | TGI (LXFL 529 NSCLC) | TGI (NCI-H23 lung) | TGI (SNB-19 CNS) | TGI (SNB-75 CNS) | TGI (NCI-H522 lung) | TGI (A498 renal) | GI50 (DMS 114 small cell lung) | GI50 (LXFL 529 NSCLC) | GI50 (NCI-H23 lung) | GI50 (SNB-19 CNS) | GI50 (SNB-75 CNS) | GI50 (NCI-H522 lung) | GI50 (A498 renal) | TGI (DU-145 prostate) | TGI (HS 578T breast) | TGI (T-47D breast) | GI50 (DU-145 prostate) | GI50 (HS 578T breast) | GI50 (T-47D breast)
1 | C[Si](C)(C)CN1C(=O)c2ccccc2C1(O)c1ccccc1 (stereo unspecified) | > 100 µM | > 100 µM | > 100 µM | > 100 µM | > 100 µM | > 100 µM | > 100 µM |  |  |  |  |  |  |  |  |  |  |  |  | 
2 | Cc1ccc(C)c(N2C(=O)C(=O)C(c3nc4ccccc4o3)/C(=N/N)C2=O)c1 (stereo unspecified) | > 100 µM | > 100 µM | > 100 µM | > 100 µM | > 100 µM | > 100 µM | > 100 µM |  |  |  |  |  |  |  |  |  |  |  |  | 
3 | CC1COS(=O)O1 (stereo unspecified) | > 100 µM |  | > 100 µM | > 100 µM | > 100 µM | > 100 µM | > 100 µM |  |  |  |  |  |  |  |  |  |  |  |  | 
4 | CCOc1ccc(N=Cc2c3ccccc3nc3ccccc23)cc1 | > 100 µM | > 100 µM | > 100 µM | > 100 µM | > 100 µM | > 100 µM | > 100 µM |  |  |  |  |  |  |  |  |  |  |  |  | 
5 | O=C1c2ccc3c4ccccc4n(-c4ccccc4)c3c2C(=O)N1c1ccc(Cl)cc1 | > 100 µM | > 100 µM | 24.4 µM | > 100 µM | > 100 µM | > 100 µM | > 100 µM |  |  |  |  |  |  |  |  |  |  |  |  | 
6 | Nc1ccc(C2=N/C(=C\c3cccc(N)c3)C(=O)O2)cc1 | > 100 µM | > 100 µM | > 100 µM | > 100 µM |  | > 100 µM |  |  |  |  |  |  |  |  |  |  |  |  |  | 
7 | CCOC(=O)C1=C(Nc2ccc(Br)cc2)OCC1=O |  | > 100 µM | > 100 µM | > 100 µM | > 100 µM | > 100 µM | > 100 µM |  |  |  |  |  |  |  |  |  |  |  |  | 
8 | O=C1C2[C@@H](C(=O)N1c1ccc(Br)cc1)C13C(=CC2([N+](=O)[O-])[C@@H]2C(=O)N(c4ccc(Br)cc4)C(=O)[C@@H]21)c1ccccc1N3c1ccccc1 (stereo partly specified) | > 100 µM |  | > 100 µM | > 100 µM | > 100 µM | > 100 µM |  |  |  |  |  |  |  |  |  |  |  |  |  | 
9 | NCCN.O=C([O-])[O-].O=C([O-])[O-].[Co+3].[K+] | > 100 µM | > 100 µM | > 100 µM | > 100 µM | > 100 µM | > 100 µM | > 100 µM | > 100 µM | > 100 µM | > 100 µM | > 100 µM | > 100 µM and 72.3 µM | > 100000 nM | > 100000 nM |  |  |  |  |  | 
10 | Cc1ccc2[c](c1)[Sn]([c]1ccccc1)([c]1ccccc1)[c]1cc(C)ccc1N2C | > 100 µM | > 100 µM | > 100 µM | > 100 µM | > 100 µM | > 100 µM |  | 28.7 µM | 26.6 µM | 41 µM | > 100 µM | > 100 µM | 21800 nM |  |  |  |  |  |  | 
11 | NC(=S)N/N=C1\CCCC\C1=C/c1ccccc1 | > 100 µM | > 100 µM | > 100 µM | > 100 µM | > 100 µM | 37.9 µM | > 100 µM |  |  |  |  |  |  |  |  |  |  |  |  | 
12 | CSc1ccc2c(cc1=O)[C@@H](NC(=O)c1cc(O)c(O)c(O)c1)CCc1cc(O)c(O)c(O)c1-2 |  | 37.8 µM | 39.7 µM | > 100 µM | 53.7 µM | 44.4 µM | > 100 µM |  |  |  |  |  |  |  |  |  |  |  |  | 
13 | CC1CCC(C(C)(C)c2ccccc2)C(=O)C1 (stereo unspecified) | > 100 µM | > 100 µM |  | > 100 µM | > 100 µM |  | > 100 µM |  |  |  |  |  |  |  |  |  |  |  |  | 
14 | CS(=O)(=O)CS(=O)(=O)OCCCl | 339 µM |  | 494 µM | 969 µM | 256 µM | 723 µM | 1350 µM |  |  |  |  |  |  |  | 748 µM | 1790 µM | 1530 µM |  |  | 
15 | C1=NC(N(Cc2ccccc2)Cc2ccccc2)N(Cc2ccccc2)N1 (stereo unspecified) | 29.3 µM | 30.7 µM | 54.9 µM | 55.3 µM | 62.8 µM | 40.9 µM | 32.2 µM |  |  |  |  |  |  |  |  |  |  |  |  | 
16 | COc1cc(/C=N\O[Si](C)(C)C(C)(C)C)ccc1O[Si](C)(C)C(C)(C)C | 83.4 µM | > 100 µM |  | > 100 µM | > 100 µM |  |  |  |  |  |  |  |  |  |  |  |  |  |  | 
17 | CCOC(=O)C(C)(c1c(C)[nH]c2ccccc12)c1c(C)[nH]c2ccccc12 | 41.6 µM | 77.3 µM | 37.5 µM |  | 48.6 µM |  | 36.6 µM |  |  |  |  |  |  |  |  |  |  |  |  | 
18 | CCCCCCCCCCCCCCCCCCC1=C(O)C(=O)C=C(OC)C1=O | 61.8 µM | > 100 µM | > 100 µM | > 100 µM | > 100 µM | 82.2 µM | > 100 µM |  |  |  |  |  |  |  |  |  |  |  |  | 
19 | NC(=O)c1cn(Cc2ccccc2)c(=O)n1Cc1ccccc1 |  | > 100 µM | > 100 µM | > 100 µM | > 100 µM | > 100 µM | > 100 µM |  |  |  |  |  |  |  |  |  |  |  |  | 
20 | NC(N)=N/N=C(\N=Nc1ccccc1)c1ccc(Cl)cc1 |  |  | 30 µM | 35.5 µM | 17.8 µM | 13.8 µM | 22.2 µM |  |  | 14.4 µM | 12 µM | 4.67 µM | 3350 nM | 9530 nM | 21.3 µM | 46.6 µM | 8.17 µM | 7.38 µM | 4790 nM | 2310 nM
21 | CC(C)(C)OC(=O)N1C2CCCC23O[C@@H]1c1cc2c(cc1C3=O)OCO2 (stereo partly specified) | > 100 µM | > 100 µM | > 100 µM | > 100 µM | 56.8 µM | 31.3 µM |  |  |  |  |  |  |  |  |  |  |  |  |  | 
22 | Cc1ccc(C)c(N2C(=O)C(=O)C(c3nc4ccccc4o3)/C(=N\NC(=O)c3ccccc3O)C2=O)c1 (stereo unspecified) | 71.3 µM | > 100 µM | 28.7 µM | > 100 µM | > 100 µM | 54 µM | 76.8 µM |  |  |  |  |  |  |  |  |  |  |  |  | 
23 | NCCCOc1cc2ccccc2cc1C(=O)NCCCOc1cc2ccccc2cc1C(=O)Nc1ccc(Cl)cc1O |  |  | 2.3 µM | 2.88 µM | 1.02 µM | 2.89 µM | 1.99 µM |  |  | 0.598 µM | 0.72 µM | 0.455 µM | 929 nM | 552 nM | 2.17 µM | 4.39 µM | 4.24 µM | 0.72 µM | 1860 nM | 1880 nM
24 | CNCCn1c(=O)c2cc(OC)c(OC)cc2c2cnc3cc4c(cc3c21)OCO4 |  |  | 1.33 µM | 2.28 µM | 0.0658 µM | 0.0261 µM | 0.135 µM |  |  | < 0.0112 µM | < 0.01 µM | < 0.01 µM | < 10 nM | 19.4 nM | 1.27 µM | 4.44 µM | 1.48 µM | < 0.01 µM | 1680 nM | < 10 nM
25 | O=C1c2ccccc2C(=O)N1C/C=N/NS(=O)(=O)c1ccc(Br)cc1 | > 100 µM | > 100 µM | > 100 µM | > 100 µM | > 100 µM | > 100 µM | > 100 µM |  |  |  |  |  |  |  |  |  |  |  |  | 
26 | O=C(Nc1ccc(Cl)cc1)Nc1nccs1 |  |  | > 100 µM | > 100 µM | > 100 µM | 14.4 µM | 16.9 µM |  |  | 11.5 µM | 3.67 µM | 2.02 µM | 1920 nM | 518 nM | 71.9 µM | 34.1 µM | > 100 µM | 3.82 µM | 1330 nM | 2380 nM

— PubChem BioAssay (NCI)
